Data: US20130121994A1, “TRIAZOLOPYRIDINE DERIVATIVES” (BAYER INTELLECTUAL PROPERTY GMBH, priority 2009, published 2013)

target: T1, human kinase Mps-1 (Homo sapiens, UniProt P33981); assay: Mps-1 kinase assay (HTRF); assay type: biochemical
T1 construct: N-terminally GST-tagged human full length recombinant Mps-1 kinase; GST (N); purchased Invitrogen, Karslruhe, Germany PV4071
T1 sequence (P33981 1-857): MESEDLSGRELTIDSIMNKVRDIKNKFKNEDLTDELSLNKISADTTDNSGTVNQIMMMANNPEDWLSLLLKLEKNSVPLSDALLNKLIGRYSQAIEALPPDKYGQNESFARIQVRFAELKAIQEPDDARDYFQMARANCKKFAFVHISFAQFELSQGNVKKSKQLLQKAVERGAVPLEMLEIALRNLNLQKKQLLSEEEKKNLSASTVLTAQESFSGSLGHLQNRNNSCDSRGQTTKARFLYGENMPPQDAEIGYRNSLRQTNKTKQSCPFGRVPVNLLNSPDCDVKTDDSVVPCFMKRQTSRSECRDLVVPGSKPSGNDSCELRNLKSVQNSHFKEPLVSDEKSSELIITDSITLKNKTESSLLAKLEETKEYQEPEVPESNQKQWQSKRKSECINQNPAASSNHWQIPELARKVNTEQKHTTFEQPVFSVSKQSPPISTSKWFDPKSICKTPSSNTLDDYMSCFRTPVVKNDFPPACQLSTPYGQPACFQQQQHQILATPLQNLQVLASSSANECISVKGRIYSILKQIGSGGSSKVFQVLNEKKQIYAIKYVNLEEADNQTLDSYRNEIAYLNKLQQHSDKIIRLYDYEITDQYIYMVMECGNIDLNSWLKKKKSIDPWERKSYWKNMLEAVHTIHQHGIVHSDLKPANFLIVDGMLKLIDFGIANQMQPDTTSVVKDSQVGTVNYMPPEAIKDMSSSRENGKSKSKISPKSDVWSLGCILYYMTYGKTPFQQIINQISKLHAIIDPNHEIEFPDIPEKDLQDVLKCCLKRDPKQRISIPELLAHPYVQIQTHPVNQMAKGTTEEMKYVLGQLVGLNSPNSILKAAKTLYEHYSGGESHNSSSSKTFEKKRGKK

**Q.** How did the IC50 turn out when `N#Cc1ccccc1Nc1nc2ccc(-c3ccccc3)cn2n1` [Example 3.1, 2-[(6-phenyl[1,2,4]triazolo[1,5-a]pyridin-2-yl)amino]benzonitrile] was run?
**A.** 860 nM

**Q.** For `CC(C)(C)NC(=O)c1ccc(-c2ccc3nc(Nc4ccccc4C#N)nn3c2)cc1` [Example 11.014, N-tert-butyl-4-{2-[(2-cyanophenyl)amino][1,2,4]triazolo[1,5-a]pyridin-6-yl}benzamide], which IC50 is on record?
**A.** 42.5 nM

**Q.** With `CCOc1ccccc1Nc1nc2ccc(-c3cc(C)c(O)c(C)c3)cn2n1` [Example 1.12, 4-{2-[(2-ethoxyphenyl)amino] [1,2,4]triazolo[1,5-a]pyridin-6-yl}-2,6-dimethylphenol] as the compound, how does the IC50 read?
**A.** 92 nM

**Q.** `COc1cc(C(=O)NC(C)(C)CO)ccc1Nc1nc2ccc(-c3ccc(C(=O)NCC(C)C)cc3)cn2n1` [Example 11.022, N-(1-hydroxy-2-methylpropan-2-yl)-3-methoxy-4-[(6-{4-[(2-methylpropyl)carbamoyl]phenyl}[1,2,4]triazolo [1,5-a]pyridin-2-yl)amino]benzamide] was tested. Which IC50 did it give?
**A.** 4.36 nM

**Q.** For `CC(C)(O)CNC(=O)c1ccc(Nc2nc3ccc(-c4cccc(C(=O)NCC(F)(F)F)c4)cn3n2)c(OCC(F)(F)F)c1` [Example 11.096, N-(2-hydroxy-2-methylpropyl)-3-(2,2,2-trifluoroethoxy)-4-[(6-{3-[(2,2,2-trifluoroethyl)carbamoyl]phenyl}[1,2,4]triazolo [1,5-a]pyridin-2-yl)amino]benzamide], which IC50 is on record?
**A.** ≤ 1 nM

**Q.** Which IC50 does the source give for `N#Cc1ccccc1Nc1nc2ccc(-c3cccc(C(=O)NCC(F)F)c3)cn2n1` [Example 11.050, 3-{2-[(2-cyanophenyl)amino][1,2,4]triazolo[1,5-a]pyridin-6-yl}-N-(2,2-difluoroethyl)benzamide] here?
**A.** 4.18 nM

**Q.** How did the IC50 turn out when `CNC(=O)c1ccc(Nc2nc3ccc(-c4cccc(C(=O)NCC(C)(C)C)c4)cn3n2)c(OC)c1` [Example 11.076, 4-[(6-{3-[(2,2-dimethylpropyl)carbamoyl]phenyl}[1,2,4]tria-zolo[1,5-a]pyridin-2-yl)amino]-3-methoxy-N-methylbenzamide] was run?
**A.** ≤ 1 nM

**Q.** Which IC50 does the source give for `COc1cc(C(=O)NC(C)(C)C)ccc1Nc1nc2ccc(-c3cccc(C(=O)NCC(F)(F)F)c3)cn2n1` [Example 11.077, N-tert-butyl-3-methoxy-4-[(6-{3-[(2,2,2-trifluoroethyl)carbamoyl]phenyl}[1,2,4]triazolo [1,5-a]pyridin-2-yl)amino]benzamide] here?
**A.** ≤ 1 nM

**Q.** Which IC50 does the source give for `COc1cc(C(=O)NC(C)(C)C)ccc1Nc1nc2ccc(-c3cccc(C(=O)NCC(C)(C)C)c3)cn2n1` [Example 11.082, N-tert-butyl-4-[(6-{3-[(2,2-dimethylpropyl)carbamoyl]phenyl}[1,2,4]tria-zolo[1,5-a]pyridin-2-yl)amino]-3-methoxybenzamide] here?
**A.** 1.23 nM

**Q.** With `CCOc1cc(C(=O)NC(C)(C)C)ccc1Nc1nc2ccc(-c3cccc(C(=O)NCC(C)(C)C)c3)cn2n1` [Example 11.089, N-tert-butyl-4-[(6-{3-[(2,2-dimethylpropyl)carbamoyl]phenyl}[1,2,4]tria-zolo[1,5-a]pyridin-2-yl)amino]-3-ethoxybenzamide] as the compound, how does the IC50 read?
**A.** 1.01 nM

**Q.** How did the IC50 turn out when `N#Cc1ccccc1Nc1nc2ccc(-c3ccc(N)cc3)cn2n1` [Example 4.2, 2-{[6-(4-aminophenyl)[1,2,4]triazolo[1,5-a]pyridin-2-yl]amino}benzonitrile] was run?
**A.** 46 nM

**Q.** Which IC50 does the source give for `CC(C)[C@H](C)NC(=O)c1cccc(-c2ccc3nc(Nc4ccccc4C#N)nn3c2)c1` [Example 11.051, 3-{2-[(2-cyanophenyl)amino][1,2,4]triazolo[1,5-a]pyridin-6-yl}-N-[(2S)-3-methylbutan-2-yl]benzamide] here?
**A.** 5.68 nM

**Q.** How did the IC50 turn out when `N#Cc1ccccc1Nc1nc2ccc(-c3cccc(CO)c3)cn2n1` [Example 3.2, 2-({6-[3-(hydroxymethyl)phen-yl][1,2,4]triazolo[1,5-a]pyridin-2-yl}amino)benzonitrile] was run?
**A.** 52 nM

**Q.** With `O=C(NCC(F)(F)F)c1ccc(-c2ccc3nc(Nc4cccnc4OCC(F)(F)F)nn3c2)cc1` [Example 11.001, 4-(2-{[2-(2,2,2-trifluoroethoxy)pyridin-3-yl]amino}[1,2,4]triazolo[1,5-a]-pyridin-6-yl)-N-(2,2,2-trifluoroethyl)benzamide] as the compound, how does the IC50 read?
**A.** ≤ 1 nM

**Q.** With `CC(F)(F)CNC(=O)c1cccc(-c2ccc3nc(Nc4ccccc4C#N)nn3c2)c1` [Example 11.041, 3-{2-[(2-cyanophenyl)amino][1,2,4]triazolo[1,5-a]pyridin-6-yl}-N-(2,2-difluoropropyl)benzamide] as the compound, how does the IC50 read?
**A.** 2.54 nM

**Q.** With `COc1cc(C(=O)NC(C)(C)CO)ccc1Nc1nc2ccc(-c3ccc(C(=O)NCC(F)(F)F)c(F)c3)cn2n1` [Example 11.018, 2-fluoro-4-[2-({4-[(1-hydroxy-2-methylpropan-2-yl)carbamoyl]-2-methoxyphenyl}amino)[1,2,4]triazolo[1,5-a]pyridin-6-yl]-N-(2,2,2-trifluoroethyl)benzamide] as the compound, how does the IC50 read?
**A.** 1.03 nM

**Q.** How did the IC50 turn out when `COc1cc(C#N)ccc1Nc1nc2ccc(-c3cc(C)c(O)c(C)c3)cn2n1` [Example 1.1, 4-{[6-(4-hydroxy-3,5-dimethylphenyl)[1,2,4]triazolo[1,5-a]pyridin-2-yl]amino}-3-methoxybenzonitrile] was run?
**A.** 17 nM

**Q.** Which IC50 does the source give for `N#Cc1ccccc1Nc1nc2ccc(-c3ccc(C(=O)NCC(F)(F)F)cc3)cn2n1` [Example 11.010, 4-{2-[(2-cyanophenyl)amino][1,2,4]triazolo[1,5-a]pyridin-6-yl}-N-(2,2,2-trifluoroethyl)benzamide] here?
**A.** 1.61 nM

**Q.** `N#Cc1ccccc1Nc1nc2ccc(-c3cccc(C(=O)NCCO)c3)cn2n1` [Example 11.070, 3-{2-[(2-cyanophenyl)amino][1,2,4]triazolo[1,5-a]pyridin-6-yl}-N-(2-hydroxyethyl)benzamide] was tested. Which IC50 did it give?
**A.** 29.7 nM

**Q.** Which IC50 does the source give for `C[C@H](NC(=O)c1cccc(-c2ccc3nc(Nc4ccccc4C#N)nn3c2)c1)C(F)(F)F` [Example 11.064, 3-{2-[(2-cyanophenyl)amino][1,2,4]triazolo[1,5-a]pyridin-6-yl}-N-[(2S)-1,1,1-trifluoropropan-2-yl]benzamide] here?
**A.** 26.5 nM

**Q.** With `C[C@H](NC(=O)c1cccc(-c2ccc3nc(Nc4ccccc4C#N)nn3c2)c1)C(C)(C)C` [Example 11.057, 3-{2-[(2-cyanophenyl)amino][1,2,4]triazolo[1,5-a]pyridin-6-yl}-N-[(2S)-3,3-dimethylbutan-2-yl]benzamide] as the compound, how does the IC50 read?
**A.** 12.2 nM

**Q.** `CC(=O)Nc1cccc(-c2ccc3nc(Nc4ccc(S(C)(=O)=O)cc4)nn3c2)c1` [Example 2.5, N-[3-(2-{[4-(methylsulfonyl)phen-yl]amino}[1,2,4]triazolo [1,5-a]pyridin-6-yl)phenyl]acetamide] was tested. Which IC50 did it give?
**A.** 770 nM

**Q.** For `O=C(CCl)Nc1ccc(-c2ccc3nc(Nc4ccccc4C(F)(F)F)nn3c2)cc1` [Example 6.3, 2-chloro-N-[4-(2-{[2-(trifluoromethyl)phenyl]amino}[1,2,4]triazolo[1,5-a]pyridin-6-yl)phenyl]acetamide], which IC50 is on record?
**A.** 220 nM

**Q.** For `COc1c(C)cc(-c2ccc3nc(Nc4ccccc4C#N)nn3c2)cc1C` [Example 3.19, 2-{[6-(4-methoxy-3,5-dimethylphenyl)[1,2,4]triazolo[1,5-a]pyridin-2-yl]amino}benzonitrile], which IC50 is on record?
**A.** 96 nM

**Q.** For `CC(C)(C)CCNC(=O)c1cccc(-c2ccc3nc(Nc4ccccc4C#N)nn3c2)c1` [Example 11.055, 3-{2-[(2-cyanophenyl)amino][1,2,4]triazolo[1,5-a]pyridin-6-yl}-N-(3,3-dimethylbutyl)benzamide], which IC50 is on record?
**A.** 9.81 nM
